Experiments:
[1] = system: human dermal fibroblast (HDF) cultures; assay: Cell growth inhibition, MTT assay, fibroblasts; assay type: cell-based; conditions: 18 hours treatment, 72 hours total growth time
Procedure: Cells were seeded overnight into 96 well plates, treated for 18 hours with increasing amounts of encapsulated or unencapsulated drug, then assessed for cell growth inhibition using an MTT assay 48 hours later for total growth time of 72 hours.

[2] = system: squamous cell carcinoma cultures; assay: Cell growth inhibition, MTT assay, carcinoma; assay type: cell-based, human; conditions: 18 hours treatment, 72 hours total growth time
Procedure: FIG. 6C: Carcinoma cells and HDF's were seeded overnight into 96 well plates at 2000 and 6000 cells per well respectively. Cisplatin preparations were added to wells for 18 hours as noted on the graph than washed out. After 72 hours cell viability of assessed by a commercial MTT assay (WST assay, Boehringer Mannheim). Wells were executed in duplicate.
Nanocapsules were prepared as described in Example 1 to encapsulate cisplatin, a […] molecule and a common cancer chemotherapeutic with serious side effects. A coating weight ratio of 1:100 was used and irregular nanocapsules of 29±3 nm were produced. […] Cells were seeded overnight into 96 well plates, treated for 18 hours with increasing amounts of encapsulated or unencapsulated drug, then assessed for cell growth inhibition using an MTT assay […] for total growth time of 72 hours. Results are illustrated in FIG. 6C.

**Q.** `N.N.[Cl][Pt][Cl]` [unencapsulated drug, cisplatin] was tested. Which “Cell death of nontarget cells” value [1] did it give?
**A.** killed

**Q.** What about the “inhibition concentration (IC50)” value [2] of the same compound?
**A.** 525 µg/mL
